Active and inactive are the calls of the source.
How the values were obtained:
Troponin, cardiac muscle = Troponin, cardiac muscle (Homo sapiens, UniProt P19429+P45379+P63316); test: Fluorescence-based biochemical high throughput dose response assay for activators of the calcium sensitivity of cardiac Regulated Thin Filaments (RTF). [Related pubchem assays (depositor defined):AID493008, AID493018, AID504382, AID504383]; assay type: protein-complex assay
[1] = molecular target: DNA dC->dU-editing enzyme APOBEC-3G (Homo sapiens, UniProt Q9HC16); test: Dose Response confirmation of small molecule APOBEC3G DNA Deaminase Inhibitors via a fluorescence-based single-stranded DNA deaminase assay. [Related pubchem assays (depositor defined):AID493012, AID493028]; assay type: functional
[2] = molecular target: T1, Carboxy-terminal domain RNA polymerase II polypeptide A small phosphatase 1 (Homo sapiens, UniProt Q9GZU7); test: inhibitors of CTDSP1, concentration-response testing, biochemical assay, absorbance-based, actives from ultra-high-throughput screening (AID 540297); assay type: functional
T1 sequence (Q9GZU7 whole entry): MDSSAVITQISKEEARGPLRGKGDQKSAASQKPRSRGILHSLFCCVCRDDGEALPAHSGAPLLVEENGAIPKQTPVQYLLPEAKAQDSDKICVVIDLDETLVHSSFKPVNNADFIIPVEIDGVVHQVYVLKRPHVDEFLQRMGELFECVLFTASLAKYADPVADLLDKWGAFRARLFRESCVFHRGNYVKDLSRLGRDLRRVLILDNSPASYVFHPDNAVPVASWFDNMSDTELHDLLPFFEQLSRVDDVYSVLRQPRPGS

[3] = molecular target: T2, Voltage-gated N-type calcium channel alpha-1B subunit/Amyloid beta A4 precursor protein-binding family A member 1 (Homo sapiens, UniProt Q00975+Q02410); assay type: protein assay
[4] = molecular target: T2, Voltage-gated N-type calcium channel alpha-1B subunit/Amyloid beta A4 precursor protein-binding family A member 1; assay type: protein assay; remark: listed apart in the source
[5] = molecular target: Melanin-concentrating hormone receptor 1 (Homo sapiens, UniProt Q99705); test: Fluorescence-based counterscreen for antagonists of the G-protein coupled receptor 7 (GPR7): cell-based high throughput dose response assay to identify antagonists of the melanin-concentrating hormone receptor 1 (MCHR1).; assay type: functional
[6] = molecular target: T3, Neuropeptides B/W receptor type 1 (Homo sapiens, UniProt P48145); test: Fluorescence-based dose response cell-based high throughput screening assay to identify antagonists of the G-protein coupled receptor 7 (GPR7). [Related pubchem assays: 1952 (Screening assay (GPR7 antagonists).), 1880 (Summary AID.)]; assay type: functional
T3 sequence (P48145 whole entry): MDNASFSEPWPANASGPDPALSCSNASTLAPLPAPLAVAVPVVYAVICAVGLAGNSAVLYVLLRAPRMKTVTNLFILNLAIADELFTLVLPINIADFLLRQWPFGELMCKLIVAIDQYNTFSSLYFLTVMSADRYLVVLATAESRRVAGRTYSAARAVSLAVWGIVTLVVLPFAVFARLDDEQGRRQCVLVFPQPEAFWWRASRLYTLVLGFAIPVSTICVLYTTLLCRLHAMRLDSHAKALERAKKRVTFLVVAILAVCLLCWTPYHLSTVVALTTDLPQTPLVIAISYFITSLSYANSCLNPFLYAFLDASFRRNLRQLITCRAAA

Beta-galactosidase = Beta-galactosidase (Escherichia coli, UniProt Q8VNN2); test: beta-galactosidase enzyme inhibitors and activators, dose response, artefact control for CCR6 antagonist project, biochemical, E. coli enzyme, set 3 (AID 504712); assay type: functional
Cytochrome P450 2C9 = Cytochrome P450 2C9 (Homo sapiens, UniProt P11712)
[7] = molecular target: T4, Zinc finger protein mex-5 (Caenorhabditis elegans, UniProt Q9XUB2); test: MEX-5/TCR-2 RNA interaction inhibitors, dose response, biochemical, C. elegans, fluorescence polarization (AID 1960)
T4 sequence (Q9XUB2 whole entry): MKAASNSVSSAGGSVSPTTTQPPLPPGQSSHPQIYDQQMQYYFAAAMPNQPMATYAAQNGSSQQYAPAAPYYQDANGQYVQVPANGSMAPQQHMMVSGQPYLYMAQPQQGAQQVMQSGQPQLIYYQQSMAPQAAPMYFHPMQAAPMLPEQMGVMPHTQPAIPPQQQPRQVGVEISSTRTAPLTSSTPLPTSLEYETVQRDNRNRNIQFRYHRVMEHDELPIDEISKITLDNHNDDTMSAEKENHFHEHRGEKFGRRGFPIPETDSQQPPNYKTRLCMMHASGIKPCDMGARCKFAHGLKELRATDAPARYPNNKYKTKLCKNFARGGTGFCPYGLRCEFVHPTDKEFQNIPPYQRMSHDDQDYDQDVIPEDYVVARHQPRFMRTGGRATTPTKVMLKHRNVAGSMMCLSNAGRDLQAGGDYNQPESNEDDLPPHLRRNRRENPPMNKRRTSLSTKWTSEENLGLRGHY

H4 = test: Luminescence Cell-Based Dose Response HTS to Identify Activators of 5'UTR Stem-Loop Driven Prion Protein mRNA Translation in H4 Neuroglioblastoma Cells. [Related pubchem assays: 1829 (Project Summary), 1814 (Primary HTS)]; assay type: functional; settings: Homo sapiens
[8] = Luminescence Cell-Based Dose Response HTS to Identify Activators of Luciferase Translation or Activity in H4 […] Cells. [Related pubchem assays: 1829 (Project Summary), 1814 (Primary HTS)]; assay type: functional
[9] = molecular target: T5, RNA-binding protein pos-1 (Caenorhabditis elegans, UniProt G5EF15); test: inhibitors of POS-1/mex-3 RNA binding, dose response, biochemical, fluorescence polarization (AID 1964);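 note: purified POS-1 fused to maltose binding protein made in E. coli; potency of compounds blocking POS-1 binding to fluorescent RNA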
T5 sequence (G5EF15 whole entry): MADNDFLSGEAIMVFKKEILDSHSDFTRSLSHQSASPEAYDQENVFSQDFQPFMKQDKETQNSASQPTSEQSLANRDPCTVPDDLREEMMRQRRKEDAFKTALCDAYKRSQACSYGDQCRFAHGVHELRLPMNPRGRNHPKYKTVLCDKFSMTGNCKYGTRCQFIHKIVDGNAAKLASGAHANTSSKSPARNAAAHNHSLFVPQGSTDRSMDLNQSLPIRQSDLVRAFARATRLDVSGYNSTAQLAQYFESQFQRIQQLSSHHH

[10] = Luminescence Cell-Based Dose Confirmation HTS to Identify Activators of 5'UTR Stem-Loop Driven Alpha-Synuclein mRNA Translation in H4 Neuroglioblastoma Cells. [Related pubchem assays: 1829 (Project Summary), 1814 (Primary HTS)]; assay type: functional
[11] = cytotoxicity in HEK-293T cells, dose response, cytotoxicity control for TCR NF-kB inhibitor project, luminescence, T-cell screen hits (AID 489026); assay type: functional, cell-based;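 note: cells exposed to compound about 14 hours before the viability readout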
INS1 = test: beta cell apoptosis inhibitors, cytokine rescue, dose response, luminescence, retest (AID 449756); assay type: functional, cell-based; settings: Rattus norvegicus;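 note: cell death triggered by IL-1 beta plus TNF-alpha plus IFN-gamma mixture; protective hits raise ATP signal compared with cytokine alone wells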
[12] = molecular target: Heat shock protein HSP 90-alpha (Homo sapiens, UniProt P07900); assay type: functional, organism-based
[13] = Luminescence Cell-Based Dose Response HTS to Identify Inhibitors of 5'UTR Stem-Loop Driven Prion Protein mRNA Translation in H4 Neuroglioblastoma Cells. [Related pubchem assays: 1827 (Project Summary), 1813 (Primary HTS)]; assay type: functional
[14] = inhibitors of firefly luciferase expression or activity, dose response, H4 neuroglioma cells, luminescence (AID 1990); assay type: functional, cell-based
[15] = inhibitors of SNCA 5'UTR-driven reporter translation, confirmation, H4 neuroglioma cells, luminescence (AID 1988); assay type: functional, cell-based
[16] = AlphaScreen signal interference compounds, dose response, artefact control for ARNT-TACC3 interaction inhibitor project, biochemical, luminescence, cherry-pick (AID 651705); assay type: functional;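 note: AlphaScreen bead proximity signal that flags compounds interfering with the detection technology; potency reflects signal decrease which marks the compound as an assay artifact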
Nonstructural protein 1 = Nonstructural protein 1 (Influenza A virus, UniProt Q194T2); assay type: functional, Influenza A virus (A/California/07/2009(H1N1))
[17] = molecular target: T6, Microphthalmia-associated transcription factor (Homo sapiens, UniProt O75030); test: TRPM1 promoter luciferase signal decrease, dose response, MITF inhibitor project, cell-based, SK-MEL-5, cherry-picked, set 3 (AID 493073); assay type: functional
T6 sequence (O75030 whole entry): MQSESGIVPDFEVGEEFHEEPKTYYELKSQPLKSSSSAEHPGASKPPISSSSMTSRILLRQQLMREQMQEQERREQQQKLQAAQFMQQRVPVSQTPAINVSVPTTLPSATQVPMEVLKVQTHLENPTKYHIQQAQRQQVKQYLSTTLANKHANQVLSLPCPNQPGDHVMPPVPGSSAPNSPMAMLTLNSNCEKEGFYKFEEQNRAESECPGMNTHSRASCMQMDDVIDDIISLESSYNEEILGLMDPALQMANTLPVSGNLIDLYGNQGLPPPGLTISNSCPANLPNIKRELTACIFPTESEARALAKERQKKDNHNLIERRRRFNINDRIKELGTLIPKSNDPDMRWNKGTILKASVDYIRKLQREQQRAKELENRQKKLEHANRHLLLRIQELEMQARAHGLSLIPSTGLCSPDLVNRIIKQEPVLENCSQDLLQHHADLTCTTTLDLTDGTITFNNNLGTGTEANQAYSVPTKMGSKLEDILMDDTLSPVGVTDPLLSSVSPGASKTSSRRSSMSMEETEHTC

H9c2 = test: cells; assay type: functional, cell-based; settings: Rattus norvegicus, H9c2, Myocardium;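 note: confirmatory concentration-response retest of ultra-high-throughput screening hits for modulation of myocardial damage; cell death induced by hydrogen peroxide oxidative stress; compound pretreatment for 60 min then peroxide exposure for 2 h; potency is for protecting the cells against peroxide damage rather than for killing them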
Cytochrome P450 3A4 = Cytochrome P450 3A4 (Homo sapiens, UniProt P08684); settings: Potency;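 note: confirmatory qHTS run detecting inhibitors and substrates of CYP3A4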

T2 sequence (Q00975 whole entry): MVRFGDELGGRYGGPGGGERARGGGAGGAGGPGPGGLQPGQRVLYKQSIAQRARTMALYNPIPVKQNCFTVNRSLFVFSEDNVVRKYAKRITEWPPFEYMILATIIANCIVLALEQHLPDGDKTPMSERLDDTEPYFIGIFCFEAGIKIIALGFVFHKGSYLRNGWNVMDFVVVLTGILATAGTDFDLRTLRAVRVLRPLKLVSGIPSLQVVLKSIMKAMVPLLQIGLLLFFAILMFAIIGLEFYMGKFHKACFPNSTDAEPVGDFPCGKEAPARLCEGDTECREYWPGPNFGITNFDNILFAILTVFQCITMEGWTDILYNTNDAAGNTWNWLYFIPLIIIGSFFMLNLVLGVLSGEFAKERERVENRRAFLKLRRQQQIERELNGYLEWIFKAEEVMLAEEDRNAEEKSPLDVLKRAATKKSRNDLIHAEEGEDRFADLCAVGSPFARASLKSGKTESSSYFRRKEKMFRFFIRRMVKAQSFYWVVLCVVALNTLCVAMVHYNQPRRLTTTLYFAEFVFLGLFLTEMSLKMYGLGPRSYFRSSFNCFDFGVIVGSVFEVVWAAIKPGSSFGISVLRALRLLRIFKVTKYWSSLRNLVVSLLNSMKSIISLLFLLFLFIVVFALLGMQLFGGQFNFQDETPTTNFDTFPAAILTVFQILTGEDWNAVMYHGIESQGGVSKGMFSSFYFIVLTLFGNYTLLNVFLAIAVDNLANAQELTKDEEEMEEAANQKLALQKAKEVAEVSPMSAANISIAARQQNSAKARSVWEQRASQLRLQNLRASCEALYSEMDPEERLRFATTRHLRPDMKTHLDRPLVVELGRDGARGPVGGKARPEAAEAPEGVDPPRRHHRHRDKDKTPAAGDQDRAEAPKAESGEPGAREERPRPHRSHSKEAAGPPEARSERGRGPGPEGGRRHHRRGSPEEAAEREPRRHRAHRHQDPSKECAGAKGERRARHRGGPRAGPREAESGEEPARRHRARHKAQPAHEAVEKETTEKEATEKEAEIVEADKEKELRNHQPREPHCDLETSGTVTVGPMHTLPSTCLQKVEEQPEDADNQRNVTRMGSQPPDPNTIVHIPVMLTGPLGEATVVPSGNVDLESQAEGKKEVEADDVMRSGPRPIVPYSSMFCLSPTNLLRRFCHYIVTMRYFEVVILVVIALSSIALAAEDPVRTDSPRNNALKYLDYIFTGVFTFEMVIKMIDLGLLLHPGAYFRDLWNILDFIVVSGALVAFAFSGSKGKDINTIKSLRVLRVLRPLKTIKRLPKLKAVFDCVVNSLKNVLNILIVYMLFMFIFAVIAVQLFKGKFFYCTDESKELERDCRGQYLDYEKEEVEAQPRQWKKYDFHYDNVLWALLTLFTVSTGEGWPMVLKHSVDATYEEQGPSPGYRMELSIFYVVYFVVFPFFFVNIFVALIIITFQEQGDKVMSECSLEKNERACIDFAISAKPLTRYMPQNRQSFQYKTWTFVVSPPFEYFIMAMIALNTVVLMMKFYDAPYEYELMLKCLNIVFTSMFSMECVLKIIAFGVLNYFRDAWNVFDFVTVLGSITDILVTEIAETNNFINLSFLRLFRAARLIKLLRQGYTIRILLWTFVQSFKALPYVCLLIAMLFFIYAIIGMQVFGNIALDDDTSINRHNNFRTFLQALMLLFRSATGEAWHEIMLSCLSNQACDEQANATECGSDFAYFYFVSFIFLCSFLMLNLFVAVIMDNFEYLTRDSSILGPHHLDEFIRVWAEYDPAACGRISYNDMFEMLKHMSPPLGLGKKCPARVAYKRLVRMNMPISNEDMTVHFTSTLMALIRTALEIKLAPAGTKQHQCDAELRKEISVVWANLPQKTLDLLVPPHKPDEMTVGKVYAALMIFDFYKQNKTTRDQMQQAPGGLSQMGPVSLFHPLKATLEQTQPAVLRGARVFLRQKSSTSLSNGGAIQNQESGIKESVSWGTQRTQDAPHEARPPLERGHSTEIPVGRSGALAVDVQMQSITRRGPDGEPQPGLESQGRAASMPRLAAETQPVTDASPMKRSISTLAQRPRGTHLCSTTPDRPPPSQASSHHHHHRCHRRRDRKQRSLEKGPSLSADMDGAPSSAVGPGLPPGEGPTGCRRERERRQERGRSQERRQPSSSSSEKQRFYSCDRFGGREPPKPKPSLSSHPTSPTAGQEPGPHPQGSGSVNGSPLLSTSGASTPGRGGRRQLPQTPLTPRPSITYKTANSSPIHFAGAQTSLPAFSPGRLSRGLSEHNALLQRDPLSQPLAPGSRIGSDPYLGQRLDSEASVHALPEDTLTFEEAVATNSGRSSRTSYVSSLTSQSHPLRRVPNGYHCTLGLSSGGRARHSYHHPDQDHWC
T2 sequence (Q02410 whole entry): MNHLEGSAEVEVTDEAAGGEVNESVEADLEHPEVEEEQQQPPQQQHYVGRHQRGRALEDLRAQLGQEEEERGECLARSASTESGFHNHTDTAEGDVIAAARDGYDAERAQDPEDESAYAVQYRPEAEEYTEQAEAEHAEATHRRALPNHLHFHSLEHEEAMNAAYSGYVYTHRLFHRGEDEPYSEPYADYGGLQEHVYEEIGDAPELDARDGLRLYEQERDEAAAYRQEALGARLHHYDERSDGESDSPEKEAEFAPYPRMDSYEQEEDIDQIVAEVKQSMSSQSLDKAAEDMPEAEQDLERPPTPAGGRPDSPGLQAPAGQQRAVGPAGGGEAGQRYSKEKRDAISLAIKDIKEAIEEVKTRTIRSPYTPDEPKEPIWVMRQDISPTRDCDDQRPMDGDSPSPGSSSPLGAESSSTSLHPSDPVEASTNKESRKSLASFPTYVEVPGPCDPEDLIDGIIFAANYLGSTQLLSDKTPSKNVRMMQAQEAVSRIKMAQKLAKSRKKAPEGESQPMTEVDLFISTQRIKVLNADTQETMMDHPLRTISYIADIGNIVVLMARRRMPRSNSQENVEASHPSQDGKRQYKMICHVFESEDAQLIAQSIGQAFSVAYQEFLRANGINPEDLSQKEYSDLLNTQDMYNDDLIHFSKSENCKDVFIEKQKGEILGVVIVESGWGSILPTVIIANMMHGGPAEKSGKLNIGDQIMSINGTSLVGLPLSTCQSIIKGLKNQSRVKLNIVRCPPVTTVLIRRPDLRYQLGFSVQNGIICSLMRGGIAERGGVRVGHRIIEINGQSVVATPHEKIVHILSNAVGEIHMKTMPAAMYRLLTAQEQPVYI
Beta-galactosidase, sequence (Q8VNN2 whole entry): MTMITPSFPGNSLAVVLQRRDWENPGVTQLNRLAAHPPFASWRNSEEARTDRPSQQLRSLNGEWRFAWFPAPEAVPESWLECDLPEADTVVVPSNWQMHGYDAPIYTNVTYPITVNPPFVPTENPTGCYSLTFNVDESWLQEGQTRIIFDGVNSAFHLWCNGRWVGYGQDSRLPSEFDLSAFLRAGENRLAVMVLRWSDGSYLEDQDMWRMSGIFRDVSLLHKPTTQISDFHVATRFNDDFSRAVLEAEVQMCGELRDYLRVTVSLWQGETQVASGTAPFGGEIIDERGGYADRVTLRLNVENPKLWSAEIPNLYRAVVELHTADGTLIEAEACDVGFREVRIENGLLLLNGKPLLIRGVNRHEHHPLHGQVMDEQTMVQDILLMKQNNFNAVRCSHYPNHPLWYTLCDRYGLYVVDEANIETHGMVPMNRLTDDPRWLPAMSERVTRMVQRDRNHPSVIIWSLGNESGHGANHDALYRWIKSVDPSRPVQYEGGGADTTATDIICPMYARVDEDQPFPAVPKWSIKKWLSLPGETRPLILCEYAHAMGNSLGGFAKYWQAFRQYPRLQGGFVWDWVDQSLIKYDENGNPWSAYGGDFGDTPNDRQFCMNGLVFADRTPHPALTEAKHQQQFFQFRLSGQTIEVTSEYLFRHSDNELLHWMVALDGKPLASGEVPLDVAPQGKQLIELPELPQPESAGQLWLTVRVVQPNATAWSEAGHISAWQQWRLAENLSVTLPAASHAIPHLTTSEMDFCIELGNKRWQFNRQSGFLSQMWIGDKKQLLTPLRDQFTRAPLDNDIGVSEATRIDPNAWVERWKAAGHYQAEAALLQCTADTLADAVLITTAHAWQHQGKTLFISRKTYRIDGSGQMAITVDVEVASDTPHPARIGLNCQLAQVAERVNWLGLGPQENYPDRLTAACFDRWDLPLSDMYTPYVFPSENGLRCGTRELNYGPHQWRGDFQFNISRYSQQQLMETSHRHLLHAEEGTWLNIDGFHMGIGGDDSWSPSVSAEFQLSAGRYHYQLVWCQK
Melanin-concentrating hormone receptor 1, sequence (Q99705 whole entry): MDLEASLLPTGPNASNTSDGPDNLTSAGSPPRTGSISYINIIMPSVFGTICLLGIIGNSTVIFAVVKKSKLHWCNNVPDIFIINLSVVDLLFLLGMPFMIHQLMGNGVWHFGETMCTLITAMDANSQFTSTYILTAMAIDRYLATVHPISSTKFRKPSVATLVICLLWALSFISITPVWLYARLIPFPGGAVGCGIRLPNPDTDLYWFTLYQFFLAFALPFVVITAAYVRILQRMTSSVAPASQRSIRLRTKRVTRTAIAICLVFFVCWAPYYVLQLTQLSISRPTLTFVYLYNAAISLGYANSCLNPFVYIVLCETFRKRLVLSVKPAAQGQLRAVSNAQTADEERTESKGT
DNA dC->dU-editing enzyme APOBEC-3G, sequence (Q9HC16 whole entry, the tested form may be a part): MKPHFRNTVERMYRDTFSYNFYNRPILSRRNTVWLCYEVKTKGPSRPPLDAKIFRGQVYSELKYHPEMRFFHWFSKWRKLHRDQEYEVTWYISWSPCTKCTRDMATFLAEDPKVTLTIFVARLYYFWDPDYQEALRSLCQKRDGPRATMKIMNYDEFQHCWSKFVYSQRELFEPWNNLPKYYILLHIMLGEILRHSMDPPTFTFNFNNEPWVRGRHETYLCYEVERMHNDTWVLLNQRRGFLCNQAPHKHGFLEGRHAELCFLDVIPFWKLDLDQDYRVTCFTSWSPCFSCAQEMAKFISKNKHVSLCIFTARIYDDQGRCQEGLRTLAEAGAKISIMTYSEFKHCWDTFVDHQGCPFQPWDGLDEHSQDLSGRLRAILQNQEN

In the case of `C=COc1ccc(N2C(=O)c3ccccc3OC2C)cc1` (configuration not stated), the EC50 (Troponin, cardiac muscle) is reported as > 71.4 µM (inactive).
For `COc1ccc2nc(C)c3cc(C)oc3c2c1`, the EC50 (Troponin, cardiac muscle) was > 71.4 µM (inactive).
For `CC(=O)c1ccc(NC(=O)c2ccc(NC(=O)c3ccco3)cc2)cc1`, the IC50 [1] was 25.3 µM (active).
In the case of `CC(/C=C/c1ccco1)=N\NC(=O)c1cccnc1`, the IC50 [2] is reported as 21.3 µM (active), the IC50 [3] is reported as 9.19 µM (active) and the IC50 [4] is reported as 17.8 µM (active).
With `COc1ccccc1NS(=O)(=O)c1cc(NC(=O)c2ccncc2)ccc1N1CCCC1` the IC50 [3] was 29 µM (active) and the IC50 [4] was > 50 µM (inactive).
In the case of `O=C(c1ccc2c(c1)OCO2)N(CC1CCCO1)C1(C(=O)NC2CCCC2)CCCCC1` (configuration not stated), the IC50 [5] is reported as > 43.8 µM (not active) and the IC50 [6] is reported as > 43.8 µM (not active).
For `Cc1cc(C)cc(N2C(=O)CC(Sc3nnnn3-c3ccccc3)C2=O)c1` (configuration not stated), the IC50 (Beta-galactosidase) was > 66.6 µM (inactive) and the AC50 (Cytochrome P450 2C9) was “inconclusive”.
In the case of `Cc1cc(/C=C2\SC(=S)N(Cc3ccco3)C2=O)c(C)n1-c1cccnc1`, the EC50 [7] is reported as 20.2 µM (inconclusive), the EC50 (H4) is reported as 3.71 µM (active) and the EC50 [8] is reported as 119 µM (active). For the same compound, the EC50 (Troponin, cardiac muscle) was > 2.65 µM (active), the EC50 [9] was 11.3 µM (inconclusive) and the EC50 [10] was 45.2 µM (active).
With `Cc1ccc(O)c(N=Nc2nccs2)c1` the IC50 [11] was > 80 µM (inactive), the IC50 (Beta-galactosidase) was > 66.6 µM (inactive) and the AC50 (INS1) was 1.15 µM (active). For the same compound, the AC50 [12] was 2.1 µM (active).
With `O=[N+]([O-])c1ccc(N2CCN(Cc3ccccc3)CC2)nc1` the IC50 [5] was 22.8 µM (not active) and the IC50 [6] was 33.4 µM (not active).
With `CCCN(CCC)CCOc1cc(C)ccc1C(C)C` the EC50 [13] was > 120 µM (not active), the IC50 [5] was 6.6 µM (active) and the IC50 [6] was 10.9 µM (not active). For the same compound, the EC50 [14] was > 120 µM (not active) and the EC50 [15] was > 120 µM (not active).
For `CC(Sc1ccc2nnc(-c3ccc(F)cc3)n2n1)C(=O)O` (configuration not stated), the IC50 [1] was 21 µM (active).
With `C/C(=N\NC(=O)C1CCCN(S(=O)(=O)c2ccccc2)C1)c1ccccn1` (configuration not stated) the IC50 (Beta-galactosidase) was > 66.6 µM (inactive), the AC50 [16] was 77.8 µM (active) and the IC50 (Nonstructural protein 1) was 22.2 µM (active).
For `CC(Oc1ccccc1)C(=O)Nc1nc(-c2ccccn2)cs1` (configuration not stated), the IC50 (Beta-galactosidase) was > 66.6 µM (inactive), the AC50 [17] was 14 µM (active) and the AC50 [16] was 84.7 µM (active). For the same compound, the IC50 (H9c2) was > 79 µM (inactive).
With `CCOC(=O)CSc1nnc(-c2ccc(S(=O)(=O)NCc3cccs3)cc2)o1` the IC50 [5] was > 43.8 µM (not active) and the IC50 [6] was > 43.8 µM (not active).
In the case of `COc1ccc(-c2oc3cc(O[C@@H]4OC(CO)C(O)C(O)C4O)c(OC)c(O)c3c(=O)c2OC)cc1O` (some centres not stated), the AC50 (Cytochrome P450 3A4) is reported as 25.1 µM (inconclusive).
In the case of `N#CC1=C2SCN(c3ccc(F)cc3)CN2C(=O)CC1c1cccc(F)c1` (configuration not stated), the IC50 [3] is reported as 1.59 µM (active) and the IC50 [4] is reported as > 50 µM (inactive).
